# Measurements: PubChem BioAssay AID1918956 (Molecular Pharmacology Branch, DTP, NCI, 2023)
# System: OVCAR-5 complex spheroids, viability
# Assay: Anticancer human tumor OVCAR-5 cell line growth inhibition;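 further: spheroids exposed to agents for seven days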;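 on viability, T/C: 100% = DMSO vehicle control wells viability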
# Settings: for IC50: curve of first compound; for viability, T/C: stronger effect = lower value
# Excerpt: Multicellular complex tumor spheroid response to LSD1 Inhibitor Iadademstat in combination with a variety of drugs and investigational agents in selected tumor cell lines
# The current study was undertaken to assess response to LSD1 inhibitors in combination with standard-of-care drugs and investigational agents in solid tumor complex spheroid models as well as in the K-562 leukemia. Complex spheroids include a stromal component modeled by human endothelial cells (HUVEC) and fibroblasts modeled by human mesenchymal stem cells (MSCs). The concentration ranges selected for each drug and investigational agent were based upon clinically achievable concentrations if the clinical Cmax of the agent was known.
# Compounds. The drugs and investigational agents used in this study are listed on Table 1. All of the agents used, including staurosporine (NSC755774) and gemcitabine (NSC613327), were obtained from the Developmental Therapeutics Program, NCI. FDA-approved anticancer drugs are available from the NCI at http://dtp.nci.nih.gov/branches/dscb/oncology_drugset_explanation.html. Drugs and investigational agents were >95% pure by proton nuclear magnetic resonance (NMR) and liquid chromatography/mass spectrometry (LC/MS). Stock solutions were prepared at 400x in DMSO, stored at -70 degrees C, and diluted in fresh medium prior to their use. The final concentration of DMSO in cell culture wells never exceeded 0.25% (v/v). The FDA-approved anticancer drug set is available from the Developmental Therapeutics Program at https://dtp.cancer.gov/organization/dscb/obtaining/available_plates.htm. All drugs and investigational agents were tested over a range starting from a high concentration at or near the clinical Cmax and decreasing in half-log increments. If the clinical Cmax for an agent had not been determined, the highest concentration tested was 10 microM.
# Cell Lines. The patient-derived cancer cell (PDC) lines: 292921-168-R-J2-PDC, K24384-001-R-PDC, and 521955-158-R2-J5-PDC pancreatic carcinomas, 556581-035-R-J1 ovarian carcinoma, 324938-238-R-J1-PDC, 855422-203-R-J1-PDC and 883617-216-R-J1-PDC urothelial bladder carcinomas, 743489-274-T-PDC renal cell carcinoma, 138582-R-J1 Merkel cell tumor, K60290-347-R-J1 and K57222-313-R-J1-PDC glioblastomas, 653999-131-R-J2-PDC, LG0703-F948-PDC, and 349418-098-R-PDC non-small cell lung carcinomas, 885512-296-R-J2-PDC, 171881-019-R-J1-PDC breast carcinomas and 186277-243-T-J2-PDC and 233499-124-R-J2-PDC colon carcinomas were obtained from the NCI Patient-Derived Models Repository (PDMR, https://pdmr.cancer.gov). The established cell lines NCI/ADR-RES (RRID:CVCL_14520 and OVCAR-5 (RRID:CVCL_1628) ovarian carcinomas, 786-O (RRID:CVCL_1051) and A498 […] renal cell carcinoma, NCI-H211 (ATCC, cat. CRL-5824; RRID:CVCL_1529), NCI-H196 (ATCC, cat. CRL-5823, RRID:CVCL_1509), SW 1271 (ATCC, cat. CRL-2177, RRID:CVCL_1716) and NCI-H1876 (ATCC, cat. CRL-5902, RRID:CVCL_1503) small cell lung carcinomas, MDA-MB-231 (RRID:CVCL_0062) and MDA-MB-468 (RRID:CVCL_0419)breast carcinomas (10-12). Pooled donor human umbilical vein endothelial cells (HUVEC, Lonza, cat. CC-2519) and human mesenchymal stem cells (hMSC, Lonza, cat. PT-2501) were purchased from Lonza (Walkersville, MD).
# Cell Culture. All cells were maintained in an incubator at 37 degrees C and 5% CO2 with 95% humidity. The PDC lines were cultured according to standard operating procedures established by the NCI PDMR (https://pdmr.cancer.gov). Briefly all PDCs were thawed and cultured in Matrigel-coated flasks prepared with a working solution of 1X Ham's F-12 nutrient mix, without supplementation (Invitrogen, Waltham, MA, cat. 11765054), 100 U/mL penicillin-streptomycin (Invitrogen, cat. 15140122), and 2.5% Matrigel (Corning Inc., Corning, NY, cat. 354248) for the first three passages. […]
smiles,measurement,setting,value
Nc1ncn(C2CC(O)C(CO)S2)c(=O)n1 (stereo not given) + NC1CCC(NC2CC2c2ccccc2)CC1,IC50,second compound 0.1 µM,> 0.3 µM
same,IC50,second compound 0.316 µM,> 0.3 µM
same,IC50,second compound 1 µM,> 0.3 µM
same,IC50,second compound 3.16 µM,> 0.3 µM
same,IC50,second compound 10 µM,> 0.3 µM
same,"viability, T/C","second compound 0.1 µM, first compound 0.000949 µM",119%
same,"viability, T/C","second compound 0.1 µM, first compound 0.003 µM",104%
same,"viability, T/C","second compound 0.1 µM, first compound 0.00949 µM",111%
same,"viability, T/C","second compound 0.1 µM, first compound 0.03 µM",99.6%
same,"viability, T/C","second compound 0.1 µM, first compound 0.0949 µM",92.2%
same,"viability, T/C","second compound 0.1 µM, first compound 0.3 µM",77%
same,"viability, T/C","second compound 0.316 µM, first compound 0.000949 µM",112%
same,"viability, T/C","second compound 0.316 µM, first compound 0.003 µM",102%
same,"viability, T/C","second compound 0.316 µM, first compound 0.00949 µM",105%
same,"viability, T/C","second compound 0.316 µM, first compound 0.03 µM",94.6%
same,"viability, T/C","second compound 0.316 µM, first compound 0.0949 µM",93.4%
same,"viability, T/C","second compound 0.316 µM, first compound 0.3 µM",80.2%
same,"viability, T/C","second compound 1 µM, first compound 0.000949 µM",102%
same,"viability, T/C","second compound 1 µM, first compound 0.003 µM",99.5%
same,"viability, T/C","second compound 1 µM, first compound 0.00949 µM",101%
same,"viability, T/C","second compound 1 µM, first compound 0.03 µM",89.8%
same,"viability, T/C","second compound 1 µM, first compound 0.0949 µM",93.9%
same,"viability, T/C","second compound 1 µM, first compound 0.3 µM",80.5%
same,"viability, T/C","second compound 3.16 µM, first compound 0.000949 µM",92%
same,"viability, T/C","second compound 3.16 µM, first compound 0.003 µM",101%
same,"viability, T/C","second compound 3.16 µM, first compound 0.00949 µM",94.1%
same,"viability, T/C","second compound 3.16 µM, first compound 0.03 µM",96.9%
same,"viability, T/C","second compound 3.16 µM, first compound 0.0949 µM",89%
same,"viability, T/C","second compound 3.16 µM, first compound 0.3 µM",75.8%
same,"viability, T/C","second compound 10 µM, first compound 0.000949 µM",91%
same,"viability, T/C","second compound 10 µM, first compound 0.003 µM",81.9%
same,"viability, T/C","second compound 10 µM, first compound 0.00949 µM",85.9%
same,"viability, T/C","second compound 10 µM, first compound 0.03 µM",83.7%
same,"viability, T/C","second compound 10 µM, first compound 0.0949 µM",82.7%
same,"viability, T/C","second compound 10 µM, first compound 0.3 µM",71%
CC(C)c1c(-c2ccccc2)nc2c(C#N)c[nH]n2c1=O + NC1CCC(NC2CC2c2ccccc2)CC1,IC50,second compound 0.1 µM,> 10 µM
same,IC50,second compound 0.316 µM,> 10 µM
same,IC50,second compound 1 µM,> 10 µM
same,IC50,second compound 3.16 µM,> 10 µM
same,IC50,second compound 10 µM,> 10 µM
same,"viability, T/C","second compound 0.1 µM, first compound 0.0316 µM",114%
same,"viability, T/C","second compound 0.1 µM, first compound 0.1 µM",124%
same,"viability, T/C","second compound 0.1 µM, first compound 0.316 µM",108%
same,"viability, T/C","second compound 0.1 µM, first compound 1 µM",130%
same,"viability, T/C","second compound 0.1 µM, first compound 3.16 µM",113%
same,"viability, T/C","second compound 0.1 µM, first compound 10 µM",117%
same,"viability, T/C","second compound 0.316 µM, first compound 0.0316 µM",119%
same,"viability, T/C","second compound 0.316 µM, first compound 0.1 µM",122%
same,"viability, T/C","second compound 0.316 µM, first compound 0.316 µM",114%
same,"viability, T/C","second compound 0.316 µM, first compound 1 µM",104%
same,"viability, T/C","second compound 0.316 µM, first compound 3.16 µM",118%
same,"viability, T/C","second compound 0.316 µM, first compound 10 µM",121%
same,"viability, T/C","second compound 1 µM, first compound 0.0316 µM",110%
same,"viability, T/C","second compound 1 µM, first compound 0.1 µM",105%
same,"viability, T/C","second compound 1 µM, first compound 0.316 µM",111%
same,"viability, T/C","second compound 1 µM, first compound 1 µM",113%
same,"viability, T/C","second compound 1 µM, first compound 3.16 µM",115%
same,"viability, T/C","second compound 1 µM, first compound 10 µM",106%
same,"viability, T/C","second compound 3.16 µM, first compound 0.0316 µM",92.9%
same,"viability, T/C","second compound 3.16 µM, first compound 0.1 µM",102%
same,"viability, T/C","second compound 3.16 µM, first compound 0.316 µM",108%
same,"viability, T/C","second compound 3.16 µM, first compound 1 µM",101%
same,"viability, T/C","second compound 3.16 µM, first compound 3.16 µM",89.3%
same,"viability, T/C","second compound 3.16 µM, first compound 10 µM",93.5%
same,"viability, T/C","second compound 10 µM, first compound 0.0316 µM",88.5%
same,"viability, T/C","second compound 10 µM, first compound 0.1 µM",81.5%
same,"viability, T/C","second compound 10 µM, first compound 0.316 µM",77.4%
same,"viability, T/C","second compound 10 µM, first compound 1 µM",79.9%
same,"viability, T/C","second compound 10 µM, first compound 3.16 µM",82.7%
same,"viability, T/C","second compound 10 µM, first compound 10 µM",79.3%
